From article PMC7091509 (Biophysical Journal, 2020)
“Also recorded” adds a separate entry of the source. One block for each substance: values may come before it.

Assays:
[1] = target: first vinculin head domain Vd1 (aa 1-258), SII-Vd1-ybbR (UniProt P18206); test: AFM single-molecule force spectroscopy
[2] = tested on: first vinculin head domain (Vd1); test: AFM single-molecule force spectroscopy; type: binding; details: for relative mechanical stability of Vd1-VBS complex / ratio of unfolding to direct unbinding (UF/UB): shear-like pulling; for relative mechanical stability of Vd1-VBS complex: AFM experiments and simulations; for ratio of unfolding to direct unbinding (UF/UB): derived from AFM experiments
vinculin = details: cited from earlier work
[3] = C-terminal pulling, bimodal distribution, 800 nm/s

Sequence of first vinculin head domain Vd1 (aa 1-258), SII-Vd1-ybbR (P18206 1-258): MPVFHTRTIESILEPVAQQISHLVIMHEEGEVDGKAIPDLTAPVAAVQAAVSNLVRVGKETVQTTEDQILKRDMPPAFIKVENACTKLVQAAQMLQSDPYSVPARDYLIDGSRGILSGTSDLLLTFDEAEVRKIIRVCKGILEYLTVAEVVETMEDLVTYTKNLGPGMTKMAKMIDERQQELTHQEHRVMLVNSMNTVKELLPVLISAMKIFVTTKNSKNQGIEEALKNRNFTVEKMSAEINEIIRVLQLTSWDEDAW

Substance: talin VBS58 peptide with N-terminal cysteine (C-GSGS-VBS-GSGS) (from UniProt Q9Y490 2345-2369)
UF/UB (ratio of unfolding to direct unbinding) [1]: 0

Substance: talin VBS11 peptide with N-terminal cysteine (C-GSGS-VBS-GSGS) (from UniProt Q9Y490 820-843)
UF/UB (ratio of unfolding to direct unbinding) [1]: 0

Substance: talin VBS11 peptide with C-terminal cysteine (GSGS-VBS-GSGS-C) (from UniProt Q9Y490 820-843)
UF/UB (ratio of unfolding to direct unbinding) [1]: 2 | rupture force, high-force population [1]: > 60 pN | rupture force, low-force population [1]: < 60 pN

Substance: talin VBS58 peptide with C-terminal cysteine (GSGS-VBS-GSGS-C) (from UniProt Q9Y490 2345-2369)
UF/UB (ratio of unfolding to direct unbinding) [1]: 0.4 | mean rupture force [1]: 45 to 60 pN

More lines, main results first:

direct unbinding in experiment ([2]; C-terminal (shear-like) pulling, 800 nm/s): almost no direct unbinding | ratio of unfolding to direct unbinding (UF/UB) [2]: ≈ 2
Substance: GEMVGQARILAQATSDLVNAIKDA [Talin VBS11]
rupture force of high-force population [2, 3]: > 60 pN | rupture force of low-force population [2, 3]: < 60 pN | high-force population ([2]; N-terminal pulling, 800 nm/s): disappeared | unfolding pattern in AFM traces ([2]; shear-like pulling (C-terminal; N-terminal for α-actinin), 800 nm/s): shows a population of high-force traces with multiple unfolding peaks | relative mechanical stability of Vd1-VBS complex [2]: formed the most stable complex

ratio of unfolding to direct unbinding (UF/UB) [2]: ≈ 0.4
Substance: ILEAAKSIAAATSALVKAASAAQRE [Talin VBS58]
interaction in SPOT-peptide assay (vinculin): strong interaction | relative mechanical stability of Vd1-VBS complex [2]: least stable complex; also recorded: low mechanical stability
